Tests used:
[1] = test system: HEK 293, M468 and NCI-H226; assay: In vitro cytotoxicity by MTT assay, summary over all cell lines; type: cell-based; details: on all cell lines
Procedure: The cancer cell line cultures of HEK 293 ([…]), BT474 (breast cancer cell line) and NCI-H226 (lung cancer) were obtained from Pasteur Institute of India, Coonoor, India, and were cultured in RPMI-1640 and 10 % heat-[…] New born calf serum with antibiotics [penicillin ([…]), streptomycin (100 μg/mL) and amphotericin B (25 μg/mL)]. The cells were maintained at 37 °C in a humidified atmosphere with 5 % CO2 and were subcultured twice a week.
The monolayer cell culture (100 μL) was trypsinized, and the cell count was adjusted to […] using medium containing 10 % new born calf serum. To each well of the 96-well microtitre plate, the diluted cell suspension (approximately 10,000 cells) (0.1 mL) was added and kept for 24 h in incubator at 37 °C in 5 % CO2 atmosphere for cell monolayer formation. After 24 h, when a partial monolayer was formed at the bottom of the well, the supernatant was flicked off, the monolayer was washed once, and different drugs, i.e. synthesized compounds (100 μL), were added to the cells in microtitre plates. The plates were then incubated at 37 °C for 3 days in 5 % CO2 atmosphere, and microscopic examination was carried out and observations recorded every 24 h. After 72 h, the sample solution in the wells was flicked off; MTT dye ([…]) was added to each well; plates were gently shaken and incubated for 4 h at 37 °C in 5 % CO2 incubator. The supernatant was removed and propanol (50 μL) was added; the plates were gently shaken to solubilize the formed formazan. The absorbance was measured using a microplate reader at a wavelength of 490 nm (Edmondson et al., [1988]; Prasad et al., [2005]; Chiruvella et al., [2008]; Chang et al., [2007]).

[2] = In vitro cytotoxicity by MTT assay, NCI-H226; type: cell-based; details: human, NCI-H226 lung cancer cells, 0.015 μM, read-out: % Cytotoxicity (100 − % cell survival) of NCI-H226 cell line
Method in brief: (§1)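 First, trypsinized cells went into wells at roughly 10,000 per well for 24 h. Next, medium was replaced with test compounds for 72 h at 37 °C. Finally, MTT was added for 4 h and the propanol-solubilized formazan read at 490 nm.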

[3] = test system: NCI-H226 (lung cancer cell line); assay: In vitro cytotoxicity by MTT assay, NCI-H226; type: cell-based; details: Homo sapiens, 72 h, read-out: % Cytotoxicity (100 − % cell survival) of NCI-H226 cell line; for cytotoxicity at 0.005 µM: NCI-H226, 0.005 μM; for cytotoxicity at 0.045 µM: NCI-H226, 0.045 μM; for cytotoxicity at 0.13 µM: NCI-H226, 0.13 μM; for cytotoxicity at 0.41 µM: NCI-H226, 0.41 μM; for cytotoxicity at 1.23 µM: NCI-H226, 1.23 μM; for cytotoxicity at 3.7 µM: NCI-H226, 3.7 μM; for cytotoxicity at 11.11 µM: NCI-H226, 11.11 μM; for cytotoxicity at 33.33 µM: NCI-H226, 33.33 μM; for cytotoxicity at 100 µM: NCI-H226, 100 μM
Method in brief: as §1

[4] = In vitro cytotoxicity by MTT assay, HEK 293; type: cell-based, human; details: human, HEK 293 cells; for cytotoxicity at 72 h, 0.005 µM / cytotoxicity at 72 h, 0.015 µM / cytotoxicity at 72 h, 0.045 µM / cytotoxicity at 72 h, 0.13 µM / cytotoxicity at 72 h, 0.41 µM / cytotoxicity at 72 h, 1.23 µM / cytotoxicity at 72 h, 3.7 µM / cytotoxicity at 72 h, 11.11 µM / cytotoxicity at 72 h, 33.33 µM / cytotoxicity at 72 h, 100 µM: read-out: % cytotoxicity (100 − % cell survival) of HEK 293 cell line
Method in brief: as §1

[5] = test system: BT474 (breast cancer cell line); assay: In vitro cytotoxicity by MTT assay, BT474; type: cell-based; details: Homo sapiens, 72 h, read-out: % cytotoxicity (100 − % cell survival) of BT474 cell line; for cytotoxicity at 0.005 µM: BT-474, 0.005 μM; for cytotoxicity at 0.015 µM: BT-474, 0.015 μM; for cytotoxicity at 0.045 µM: BT-474, 0.045 μM; for cytotoxicity at 0.13 µM: BT-474, 0.13 μM; for cytotoxicity at 0.41 µM: BT-474, 0.41 μM; for cytotoxicity at 1.23 µM: BT-474, 1.23 μM; for cytotoxicity at 3.7 µM: BT-474, 3.7 μM; for cytotoxicity at 11.11 µM: BT-474, 11.11 μM; for cytotoxicity at 33.33 µM: BT-474, 33.33 μM; for cytotoxicity at 100 µM: BT-474, 100 μM
Method in brief: as §1

Row | SMILES | cytotoxic activity compared with all synthesized compounds [1] | cytotoxicity at 72 h, 0.015 µM [2] [%] | cytotoxicity at 0.005 µM [3] [%] | cytotoxicity at 0.045 µM [3] [%] | cytotoxicity at 0.13 µM [3] [%] | cytotoxicity at 0.41 µM [3] [%] | cytotoxicity at 1.23 µM [3] [%] | cytotoxicity at 3.7 µM [3] [%] | cytotoxicity at 11.11 µM [3] [%] | cytotoxicity at 33.33 µM [3] [%] | cytotoxicity at 100 µM [3] [%] | cytotoxicity at 72 h, 0.005 µM [4] [%] | cytotoxicity at 72 h, 0.015 µM [4] [%] | cytotoxicity at 72 h, 0.045 µM [4] [%] | cytotoxicity at 72 h, 0.13 µM [4] [%] | cytotoxicity at 72 h, 0.41 µM [4] [%] | cytotoxicity at 72 h, 1.23 µM [4] [%] | cytotoxicity at 72 h, 3.7 µM [4] [%] | cytotoxicity at 72 h, 11.11 µM [4] [%] | cytotoxicity at 72 h, 33.33 µM [4] [%] | further results
1 | Nc1nnc(S(=O)(=O)NC(=O)c2ccccc2)s1 [Compound 4a, 5-amino-1,3,4-thiadiazol-2-[N-(benzoyl)]sulphonamide] | less activity | 23.1 | 22.4 | 24.2 | 24.9 | 25.5 | 26.1 | 26.6 | 27.1 | 27.5 | 27.9 | 25.6 | 25.8 | 26.6 | 26.9 | 28.2 | 28.5 | 28.9 | 29.5 | 31.7 | cytotoxicity at 72 h, 100 µM [4]: 33%; cytotoxicity at 0.005 µM [5]: 20.1%; cytotoxicity at 0.015 µM [5]: 22.6%; cytotoxicity at 0.045 µM [5]: 23.1%; cytotoxicity at 0.13 µM [5]: 24.6%; cytotoxicity at 0.41 µM [5]: 25.4%; cytotoxicity at 1.23 µM [5]: 25.9%; cytotoxicity at 3.7 µM [5]: 26.3%; cytotoxicity at 11.11 µM [5]: 27.4%; cytotoxicity at 33.33 µM [5]: 28.1%; cytotoxicity at 100 µM [5]: 28.7%
2 | CC(=O)Nc1ccc(S(=O)(=O)Nc2nnc(S(=O)(=O)NC(=O)c3ccccc3N)s2)cc1 [Compound 6b] | moderate activity | 37.3 | 36.3 | 38.4 | 39.1 | 42 | 42.7 | 43.4 | 45.3 | 47.1 | 49.1 | 35.6 | 36.2 | 37.9 | 39.9 | 42.6 | 43.1 | 44 | 45.3 | 46.8 | cytotoxicity at 72 h, 100 µM [4]: 48.2%; cytotoxicity at 0.005 µM [5]: 24.3%; cytotoxicity at 0.015 µM [5]: 25.1%; cytotoxicity at 0.045 µM [5]: 25.8%; cytotoxicity at 0.13 µM [5]: 26.2%; cytotoxicity at 0.41 µM [5]: 27.1%; cytotoxicity at 1.23 µM [5]: 28.1%; cytotoxicity at 3.7 µM [5]: 28.7%; cytotoxicity at 11.11 µM [5]: 29.3%; cytotoxicity at 33.33 µM [5]: 30.3%; cytotoxicity at 100 µM [5]: 32%
3 | CC(=O)Nc1ccc(S(=O)(=O)Nc2nnc(S(=O)(=O)NC(=O)c3ccc([N+](=O)[O-])cc3)s2)cc1 [Compound 6e] | moderate activity | 41.2 | 38.8 | 42.4 | 45.4 | 47.6 | 48.6 | 49.2 | 50.8 | 51.1 | 54.5 | 39.1 | 42 | 42.7 | 43.4 | 45.3 | 47.1 | 49.1 | 49.9 | 51.2 | cytotoxicity at 72 h, 100 µM [4]: 55%; cytotoxicity at 0.005 µM [5]: 27.1%; cytotoxicity at 0.015 µM [5]: 28%; cytotoxicity at 0.045 µM [5]: 28.1%; cytotoxicity at 0.13 µM [5]: 28.7%; cytotoxicity at 0.41 µM [5]: 29.4%; cytotoxicity at 1.23 µM [5]: 30.1%; cytotoxicity at 3.7 µM [5]: 31.1%; cytotoxicity at 11.11 µM [5]: 32.5%; cytotoxicity at 33.33 µM [5]: 34.8%; cytotoxicity at 100 µM [5]: 37.3%
4 | CC(=O)Nc1ccc(S(=O)(=O)Nc2nnc(S(=O)(=O)NC(=O)c3cccc([N+](=O)[O-])c3)s2)cc1 [Compound 6f] | more potent | 44.9 | 41.3 | 46.5 | 48.3 | 51.3 | 54.6 | 55.2 | 57.1 | 59.6 | 66 | 39.3 | 42.2 | 45.4 | 47.2 | 49.1 | 51.2 | 54.2 | 58.6 | 59.3 | cytotoxicity at 72 h, 100 µM [4]: 62.4%; CC50 (50% cytotoxic concentration) at 72 h ([4]; HEK 293, concentration at which 50 % of the cells are dead, read-out: CTCC50 (cytotoxicity concentration)): 1120 nM; cytotoxicity at 0.005 µM [5]: 29.1%; cytotoxicity at 0.015 µM [5]: 30.1%; cytotoxicity at 0.045 µM [5]: 32.1%; cytotoxicity at 0.13 µM [5]: 33.4%; cytotoxicity at 0.41 µM [5]: 35.8%; cytotoxicity at 1.23 µM [5]: 37.2%; cytotoxicity at 3.7 µM [5]: 40.6%; cytotoxicity at 11.11 µM [5]: 42.2%; cytotoxicity at 33.33 µM [5]: 45.3%; cytotoxicity at 100 µM [5]: 50.8%
